How the values were obtained:
[1] = tested on: GADD-153; test: Real time RT-PCR gene expression, GADD-153; type: cell-based; details: 25 μM, 24 hours; <0.5 significant decrease, >1.5 significant increase
Method: (§1) Real time reverse transcription-PCR analysis was performed according to the protocol provided with the SYBR Green PCR Master Mix Kit (Perkin Elmer Biosystems, Shelton, ST). […] The primers used for the RT-PCR reactions were [NT] and [NT].

[2] = tested on: SW480 cells; test: Flow cytometric analysis (FACS) of cell cycle, SW480; type: cell-based; details: SW480, 25 μM, 24 hours
Method: For FACS analysis, approx. 5×10^6 cells from Compound D-treated or vehicle-treated were fixed with 70% chilled ethanol and stored at −20° C. for at least 30 minutes. The cells were washed once with 1×PBS and incubated with propidium iodine (PI) solution (85 μg/ml propidium iodine, 0.1% Nonidet P-40, 10 mg/ml RNAse) for 30 minutes at room temperature. 10,000 stained cells for each sample were acquired using Beckman Coulter EPICS XL-MCL Flow Cytometry and the percentage of cells in different phase of the cell cycle was determined by Expo32 ADC software (Coulter Corporation, Miami, Fla., 33196).
It has been shown that inhibition of the expression of the cyclin D1 gene causes arrest at the G1/S-phase of the cell cycle (Shintani et al., “Infrequent alternations of RB pathway (Rb-p16INK4A-cyclin D1) in adenoid cystic carcinoma of salivary glands,” Anticancer Res. 20:2169-75 (2000)). […] The cells were subsequently stained with propidium iodide (PI) and analyzed for DNA content by FACS cytofluorometry.

[3] = tested on: survivin promoter; test: Survivin luciferase reporter in SW480 cells; type: cell-based; details: SW480 cells, various concentrations
[4] = tested on: surviving promoter; test: ChIP assay on SW480 cells (survivin promoter occupancy); type: cell-based; details: SW480, 25 μM, 18 hours
[5] = tested on: HLAC; test: Real time RT-PCR gene expression, HLAC; type: cell-based; details: 25 μM, 24 hours; <0.5 significant decrease, >1.5 significant increase
Method: as §1

[6] = tested on: cultured tumor cells; test: Cell death of cultured tumor cells; type: cell-based; details: 5.0 μM
[7] = tested on: caspase-3/7 in HCT116 cells; test: Caspase-3/7 activity assay, HCT116; type: cell-based; details: HCT116, 25 μM, 24 hours, compared to CCD18Co cells
Method: SW480, HCT116, and CCD18Co cells were plated at 10^5 cells per well (96-well plates) for 24 hours prior to treatment. […] 24 hours post treatment, cells were lysed and caspase activity was measured using a caspase-3/7 activity kit (Apo-One Homogeneous caspase-3/7 assay, #G77905, Promega). Relative fluorescence units (RFU) were obtained by subtracting the unit values of the blank (control, without cells) from the experimental measured values.
Caspases are cysteine proteases that are generally activated in a given population of cells triggered by apoptotic stimuli.

[8] = biological target: β-catenin/p300 interaction (Homo sapiens, UniProt Q09472); details: Emami et al., Cancer Cell, in press; cited from earlier work
[9] = tested on: Antigen KI-67; test: Real time RT-PCR gene expression, Antigen KI-67; type: cell-based; details: 25 μM, 24 hours; <0.5 significant decrease, >1.5 significant increase
Method: as §1

[10] = tested on: Ubiquitin; test: Real time RT-PCR gene expression, Ubiquitin; type: cell-based; details: 25 μM, 24 hours; <0.5 significant decrease, >1.5 significant increase
Method: as §1

[11] = tested on: TCF/β-catenin reporter gene transcription; test: TOPFLASH luciferase assay in differentiated PC-12 PS-1/L286V cells; type: cell-based, Rat; details: PS-1/L286V mutant PC-12 cells, 10 μM plus NGF
Method: Differentiated PC-12/L286V cells were treated with increasing concentrations of this compound for 4 hours. Transfection was then initiated after this treatment period.
Transfection. PC-12 cells were cultured and differentiated on 60-mm dishes. At the end of the 10-day differentiation period, cells were transfected with 2 μg reporter constructs, TOPFLASH and FOPFLASH, per 60-mm dish. Transfections were performed using Superfect (Qiagen) according to manufacturer's instructions.
Luciferase Assays. Cells were lysed, 6 hours after transfections, in 100 μl of Cell Culture Lysis Reagent (Promega, Madison, Wis.), and scraped into microcentrifuge tubes. Tubes were then centrifuged briefly (about 10 seconds) at 12000 rpm to pellet cell debris. Luciferase activity was measured on 20 μl of cell lysate and 100 μl substrate from the Luciferase Assay System (Promega). Luciferase activity was measure using Packard LumiCount. (Hewlett Packard). Quantitation of luciferase was performed in triplicates, and repeated in at least three independent experiments.

[12] = tested on: GADPH; test: Real time RT-PCR gene expression, GADPH; type: cell-based; details: 25 μM, 24 hours; <0.5 significant decrease, >1.5 significant increase
Method: as §1

[13] = tested on: survivin; test: Real time RT-PCR gene expression, Survivin; type: cell-based; details: 25 μM, 24 hours; <0.5 significant decrease, >1.5 significant increase
Method: as §1

[14] = tested on: caspase 3; test: Caspase 3 activity in cultured tumor cells; type: cell-based; details: 2.5 μM or 5.0 μM
[15] = tested on: surviving promoter; test: Survivin promoter luciferase reporter in wild type, CBP+/−, p300+/− 3T3 cells; type: cell-based; details: with or without Wnt1
Description: A plasmid containing luciferase under the control of surviving promoter was constructed and transfected into wild type, CBP+/−, or p300+/−3T3 cells.

Chain of β-catenin/p300 interaction (Q09472 whole entry): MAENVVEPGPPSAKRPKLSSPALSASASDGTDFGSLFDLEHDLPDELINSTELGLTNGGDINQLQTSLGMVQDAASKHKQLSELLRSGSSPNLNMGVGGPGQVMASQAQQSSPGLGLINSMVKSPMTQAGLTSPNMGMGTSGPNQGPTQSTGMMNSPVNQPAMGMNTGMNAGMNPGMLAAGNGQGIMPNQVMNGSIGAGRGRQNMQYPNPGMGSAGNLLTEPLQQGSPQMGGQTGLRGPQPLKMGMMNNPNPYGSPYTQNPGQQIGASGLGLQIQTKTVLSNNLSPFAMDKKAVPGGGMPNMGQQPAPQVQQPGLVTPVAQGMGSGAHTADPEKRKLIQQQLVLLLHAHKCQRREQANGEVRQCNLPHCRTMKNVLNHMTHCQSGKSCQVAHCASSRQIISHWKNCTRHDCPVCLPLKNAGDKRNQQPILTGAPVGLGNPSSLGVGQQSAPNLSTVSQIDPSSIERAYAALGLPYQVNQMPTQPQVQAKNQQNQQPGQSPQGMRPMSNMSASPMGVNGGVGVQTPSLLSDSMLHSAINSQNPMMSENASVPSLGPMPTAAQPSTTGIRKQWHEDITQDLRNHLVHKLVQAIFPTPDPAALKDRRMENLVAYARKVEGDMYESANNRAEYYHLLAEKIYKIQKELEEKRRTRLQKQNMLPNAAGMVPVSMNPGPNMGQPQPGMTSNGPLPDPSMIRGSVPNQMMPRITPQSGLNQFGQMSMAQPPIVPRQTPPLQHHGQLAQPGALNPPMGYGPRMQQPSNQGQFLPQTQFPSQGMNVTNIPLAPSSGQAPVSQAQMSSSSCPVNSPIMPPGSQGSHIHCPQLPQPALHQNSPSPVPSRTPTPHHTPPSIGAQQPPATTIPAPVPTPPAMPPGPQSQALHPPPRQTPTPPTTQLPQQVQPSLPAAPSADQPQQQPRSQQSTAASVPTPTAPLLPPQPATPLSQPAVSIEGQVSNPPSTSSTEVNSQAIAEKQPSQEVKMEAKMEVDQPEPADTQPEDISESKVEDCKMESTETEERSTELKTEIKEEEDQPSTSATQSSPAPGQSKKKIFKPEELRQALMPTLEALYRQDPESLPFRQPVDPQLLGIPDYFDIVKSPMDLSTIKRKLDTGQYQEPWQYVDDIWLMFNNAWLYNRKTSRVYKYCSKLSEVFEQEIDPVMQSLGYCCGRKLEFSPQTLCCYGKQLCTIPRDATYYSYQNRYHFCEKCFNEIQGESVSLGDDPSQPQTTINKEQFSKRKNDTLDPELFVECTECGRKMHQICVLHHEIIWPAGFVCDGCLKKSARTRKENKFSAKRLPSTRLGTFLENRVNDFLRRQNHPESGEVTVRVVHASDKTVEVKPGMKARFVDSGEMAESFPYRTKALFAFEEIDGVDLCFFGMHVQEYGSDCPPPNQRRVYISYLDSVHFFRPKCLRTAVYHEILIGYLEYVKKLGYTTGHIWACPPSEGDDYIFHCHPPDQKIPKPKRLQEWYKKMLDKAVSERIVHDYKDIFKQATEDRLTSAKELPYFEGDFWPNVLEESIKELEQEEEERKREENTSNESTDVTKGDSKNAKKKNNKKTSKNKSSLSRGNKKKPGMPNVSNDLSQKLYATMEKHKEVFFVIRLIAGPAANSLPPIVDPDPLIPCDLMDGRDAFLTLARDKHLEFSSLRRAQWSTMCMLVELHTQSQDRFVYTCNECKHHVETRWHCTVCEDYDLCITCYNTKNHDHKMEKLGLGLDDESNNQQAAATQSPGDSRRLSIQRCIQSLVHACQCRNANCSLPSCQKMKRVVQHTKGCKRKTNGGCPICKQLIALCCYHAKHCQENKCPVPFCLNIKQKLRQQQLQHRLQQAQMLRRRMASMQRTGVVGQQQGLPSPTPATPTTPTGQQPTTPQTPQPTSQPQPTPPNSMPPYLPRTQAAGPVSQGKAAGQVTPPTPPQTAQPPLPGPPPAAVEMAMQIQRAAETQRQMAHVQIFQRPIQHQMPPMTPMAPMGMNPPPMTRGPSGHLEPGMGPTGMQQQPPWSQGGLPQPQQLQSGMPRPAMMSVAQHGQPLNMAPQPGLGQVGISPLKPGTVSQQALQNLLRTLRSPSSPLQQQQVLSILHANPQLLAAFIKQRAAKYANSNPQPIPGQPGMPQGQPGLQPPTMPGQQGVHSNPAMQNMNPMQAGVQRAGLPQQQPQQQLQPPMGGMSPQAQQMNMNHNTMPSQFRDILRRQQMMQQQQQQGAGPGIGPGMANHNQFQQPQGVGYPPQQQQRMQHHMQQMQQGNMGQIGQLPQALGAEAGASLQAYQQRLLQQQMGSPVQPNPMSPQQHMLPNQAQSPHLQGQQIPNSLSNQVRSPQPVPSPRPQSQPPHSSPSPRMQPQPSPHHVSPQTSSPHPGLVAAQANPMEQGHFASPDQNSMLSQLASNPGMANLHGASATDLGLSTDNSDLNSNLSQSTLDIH

SMILES: O=C1[C@H](Cc2ccc(O)cc2)N2C(=O)CCN(C(=O)NCc3ccccc3)[C@H]2CN1Cc1cccc2ccccc12 [Compound D]
- Ratio (Treated/DMSO Control) GADD-153 [1]: 7.00
- cell cycle distribution (FACS, PI) [2]: increased accumulation at G1/S-phase of the cell cycle
- survivin expression (luciferase reporter) [3]: inhibit expression of surviving in SW480 cells
- association of CBP, β-catenin, Tcf4 and acetylated histone with the survivin promoter (ChIP) [4]: decreases the association of all these proteins with the surviving promoter
- Ratio (Treated/DMSO Control) HLAC [5]: 1.01
- cell death [6]: promote cell death
- caspase-3/7 activity [7]: specifically and significantly activated the caspase-3/7 pathway
- blocking of β-catenin/p300 interaction [8]: not the β-catenin/p300 interaction
- Ratio (Treated/DMSO Control) Antigen KI-67 [9]: 0.45
- Ratio (Treated/DMSO Control) Ubiquitin [10]: 0.98
- TCF/β-catenin reporter gene transcription [11]: decreased TCF/β-catenin reporter gene transcription
- Ratio (Treated/DMSO Control) GADPH [12]: 0.98
- Ratio (Treated/DMSO Control) Survivin [13]: 0.30
- caspase 3 activity [14]: activated the caspase 3 activity
- survivin gene expression (promoter luciferase) [15]: reduces expression of the surviving gene
